Columns and labels:
Assay type in all cases: in vivo
[1] = system: waterhemp_RES1 (ALS & Triazine resistant common waterhemp, Amaranthus rudis); test: Test E greenhouse herbicide test, postemergence
Method in brief: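 Visual injury scored 0 (no effect) to 100 (complete control) versus untreated plants, 14 to 21 d after treatment in the greenhouse. Plants were treated postemergence at 1- to 4-leaf stage, 2–18 cm height, in peat-moss/vermiculite medium.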

[2] = system: sandbur (southem sandbur, Cenchrus echinatus); test: Test E greenhouse herbicide test, pre- and postemergence
Description: (§1) Seeds of plant species selected from corn (Zea mays), soybean (Glycine max), velvetleaf (Abutilon theophrasti), lambsquarters (Chenopodium album), wild poinsettia (Euphorbia heterophylla), pigweed, palmer (palmer pigweed, Amaranthus palmeri), waterhemp (common waterhemp, Amaranthus rudis), surinam grass (Brachiaria decumbens), crabgrass, large (large crabgrass, Digitaria sanguinalis), crabgrass, Brazilian (Brazilian crabgrass, Digitaria horizontalis), panicum, fall (fall panicum, Panicum dichotomiflorum), foxtail, giant (giant foxtail, Setaria faberii), foxtail, green (green foxtail, Setaria viridis), goosegrass (Eleusine indica), johnsongrass (Sorghum halepense), ragweed (common ragweed, Ambrosia elatior), barnyardgrass (Echinochloa crus-galli), sandbur (southem sandbur, Cenchrus echinatus), arrowleaf sida (Sida rhombifolia), Italian ryegrass (Lolium multiflorum), dayflower (Virginia (VA) dayflower, Commelina virginica), field bindweed (Convolvulus arvensis), momingglory (Ipomoea coccinea), nightshade (eastern black nightshade, Solanum ptycanthum), kochia (Kochia scoparia), nutsedge, yellow (yellow nutsedge, Cyperus esculentus), horseweed (Conyza canadensis), and beggarticks (hairy beggarticks, Bidens pilosa), were planted into a silt loam soil and treated preemergence with test chemicals formulated in a non-phytotoxic solvent mixture which included a surfactant.
(§2) At the same time, plants from these crop and weed species and also waterhemp_RES1, (ALS & Triazine resistant common waterhemp, Amaranthus rudis), and waterhemp_RES2, (ALS & HPPD resistant common waterhemp, Amaranthus rudis) were planted in pots containing Redi-Earth® planting medium (Scotts Company, 14111 Scottslawn Road, Marysville, Ohio 43041) comprising spaghnum peat moss, vermiculite, wetting agent and starter nutrients were treated with postemergence applications of test chemicals formulated in the same manner. Plants ranged in height from 2 to 18 cm for postemergence treatments (1- to 4-leaf stage). Treated plants and controls were maintained in a greenhouse for 14 to 21 d, after which time all species were compared to controls and visually evaluated. Plant response ratings, summarized in Table E, are based on a scale of 0 to 100 where 0 is no effect and 100 is complete control. A dash (-) response means no test result.

[3] = system: corn (Zea mays); test: as above
Description: as §1, §2

[4] = system: panicum, fall (fall panicum, Panicum dichotomiflorum); test: as above
Description: as §1, §2

[5] = system: nutsedge, yellow (yellow nutsedge, Cyperus esculentus); test: as above; settings: Preemergence
Description: as §1, §2

[6] = system: foxtail, green (green foxtail, Setaria viridis); test: as above; settings: Preemergence
Description: as §1, §2

[7] = system: crabgrass, large (large crabgrass, Digitaria sanguinalis); test: as above; settings: Preemergence
Description: as §1, §2

[8] = system: velvetleaf (Abutilon theophrasti); test: as above; settings: Preemergence
Description: as §1, §2

[9] = system: foxtail, giant (giant foxtail, Setaria faberii); test: as above; settings: Preemergence
Description: as §1, §2

[10] = system: pigweed, palmer (palmer pigweed, Amaranthus palmeri); test: as above
Description: as §1, §2

[11] = system: lambsquarters (Chenopodium album); test: as above; settings: Preemergence
Description: as §1, §2

[12] = system: dayflower (Virginia (VA) dayflower, Commelina virginica); test: as above
Description: as §1, §2

[13] = system: soybean (Glycine max); test: as above
Description: as §1, §2

[14] = system: johnsongrass (Sorghum halepense); test: as above; settings: Preemergence
Description: as §1, §2

[15] = system: kochia (Kochia scoparia); test: as above
Description: as §1, §2

[16] = system: crabgrass, Brazilian (Brazilian crabgrass, Digitaria horizontalis); test: as above
Description: as §1, §2

[17] = 62 g ai/ha, scale 0 to 100 (0 no effect, 100 complete control)
[18] = 125 g ai/ha, scale 0 to 100 (0 no effect, 100 complete control)
[19] = 62 g ai/ha, Postemergence, scale 0 to 100 (0 no effect, 100 complete control)
[20] = 62 g ai/ha, Preemergence, scale 0 to 100 (0 no effect, 100 complete control)
[21] = 125 g ai/ha, Postemergence, scale 0 to 100 (0 no effect, 100 complete control)
[22] = 125 g ai/ha, Preemergence, scale 0 to 100 (0 no effect, 100 complete control)
[23] = 250 g ai/ha, Postemergence, scale 0 to 100 (0 no effect, 100 complete control)
[24] = Postemergence, 31 g ai/ha, visual, scale 0 no effect to 100 complete control
[25] = Preemergence, 31 g ai/ha, scale 0 to 100, 0 no effect, 100 complete control
[26] = Preemergence, 250 g ai/ha, visual, scale 0 no effect to 100 complete control
[27] = Preemergence, 125 g ai/ha, visual, scale 0 no effect to 100 complete control
[28] = 31 g ai/ha, scale 0 to 100, 0 no effect, 100 complete control
[29] = 250 g ai/ha, visual, scale 0 no effect to 100 complete control
[30] = 125 g ai/ha, visual, scale 0 no effect to 100 complete control

SMILES: Cn1nc(Br)c(O)c(-c2cccc3ccccc23)c1=O [Compound 20]
- Plant response rating, Waterhemp_RES1 ([1]; 31 g ai/ha, visual, scale 0 no effect to 100 complete control): 60
- Plant response rating, Waterhemp_RES1 [1, 17]: 70
- Plant response rating, Waterhemp_RES1 [1, 18]: 80
- Plant response rating, Waterhemp_RES1 ([1]; 250 g ai/ha, scale 0 to 100 (0 no effect, 100 complete control)): 80
- Plant response rating, Sandbur [2, 19]: 20
- Plant response rating, Sandbur [2, 20]: 0
- Plant response rating, Sandbur [2, 21]: 30
- Plant response rating, Sandbur [2, 22]: 65
- Plant response rating, Sandbur [2, 23]: 40
- Plant response rating, Sandbur [2, 24]: 15
- Plant response rating, Sandbur [2, 25]: 0
- Plant response rating, Sandbur [2, 26]: 75
- Plant response rating, Corn [3, 19]: 0
- Plant response rating, Corn [3, 20]: 0
- Plant response rating, Corn [3, 21]: 0
- Plant response rating, Corn [3, 23]: 15
- Plant response rating, Corn [3, 24]: 0
- Plant response rating, Corn [3, 25]: 0
- Plant response rating, Corn [3, 27]: 0
- Plant response rating, Corn [3, 26]: 0
- Plant response rating, Panicum, Fall [4, 19]: 15
- Plant response rating, Panicum, Fall [4, 20]: 35
- Plant response rating, Panicum, Fall [4, 21]: 30
- Plant response rating, Panicum, Fall [4, 22]: 65
- Plant response rating, Panicum, Fall [4, 23]: 50
- Plant response rating, Panicum, Fall [4, 24]: 0
- Plant response rating, Panicum, Fall [4, 25]: 0
- Plant response rating, Panicum, Fall [4, 26]: 98
- Plant response rating, Nutsedge, Yellow [5, 17]: 50
- Plant response rating, Nutsedge, Yellow [5, 18]: 75
- Plant response rating, Nutsedge, Yellow [5, 28]: 0
- Plant response rating, Nutsedge, Yellow [5, 29]: 95
- Plant response rating, Foxtail, Green [6, 17]: 40
- Plant response rating, Foxtail, Green [6, 28]: 0
- Plant response rating, Foxtail, Green [6, 30]: 65
- Plant response rating, Foxtail, Green [6, 29]: 70
- Plant response rating, Crabgrass, Large [7, 17]: 35
- Plant response rating, Crabgrass, Large [7, 28]: 30
- Plant response rating, Crabgrass, Large [7, 30]: 35
- Plant response rating, Crabgrass, Large [7, 29]: 30
- Plant response rating, Velvetleaf [8, 17]: 65
- Plant response rating, Velvetleaf [8, 18]: 80
- Plant response rating, Velvetleaf [8, 28]: 0
- Plant response rating, Velvetleaf [8, 29]: 100
- Plant response rating, Foxtail, Giant [9, 17]: 20
- Plant response rating, Foxtail, Giant [9, 28]: 5
- Plant response rating, Foxtail, Giant [9, 30]: 75
- Plant response rating, Foxtail, Giant [9, 29]: 90
- Plant response rating, Pigweed, Palmer [10, 19]: 35
- Plant response rating, Pigweed, Palmer [10, 20]: 0
- Plant response rating, Pigweed, Palmer [10, 21]: 55
- Plant response rating, Pigweed, Palmer [10, 22]: 5
- Plant response rating, Pigweed, Palmer [10, 23]: 70
- Plant response rating, Pigweed, Palmer [10, 24]: 40
- Plant response rating, Pigweed, Palmer [10, 25]: 0
- Plant response rating, Pigweed, Palmer [10, 26]: 70
- Plant response rating, Lambsquarters [11, 17]: 95
- Plant response rating, Lambsquarters [11, 28]: 70
- Plant response rating, Lambsquarters [11, 30]: 95
- Plant response rating, Lambsquarters [11, 29]: 100
- Plant response rating, Dayflower, VA [12, 19]: 10
- Plant response rating, Dayflower, VA [12, 20]: 0
- Plant response rating, Dayflower, VA [12, 21]: 50
- Plant response rating, Dayflower, VA [12, 23]: 50
- Plant response rating, Dayflower, VA [12, 24]: 0
- Plant response rating, Dayflower, VA [12, 25]: 0
- Plant response rating, Dayflower, VA [12, 27]: 0
- Plant response rating, Dayflower, VA [12, 26]: 0
- Plant response rating, Soybean [13, 19]: 20
- Plant response rating, Soybean [13, 20]: 0
- Plant response rating, Soybean [13, 21]: 40
- Plant response rating, Soybean [13, 22]: 20
- Plant response rating, Soybean [13, 23]: 30
- Plant response rating, Soybean [13, 24]: 20
- Plant response rating, Soybean [13, 25]: 0
- Plant response rating, Johnsongrass [14, 28]: 0
- Plant response rating, Johnsongrass [14, 29]: 0
- Plant response rating, Kochia [15, 19]: 65
- Plant response rating, Kochia [15, 20]: 90
- Plant response rating, Kochia [15, 21]: 75
- Plant response rating, Kochia [15, 23]: 90
- Plant response rating, Kochia [15, 24]: 60
- Plant response rating, Kochia [15, 25]: 0
- Plant response rating, Kochia [15, 27]: 98
- Plant response rating, Kochia [15, 26]: 100
- Plant response rating, Crabgrass, Brazil [16, 19]: 20
- Plant response rating, Crabgrass, Brazil [16, 20]: 60
- Plant response rating, Crabgrass, Brazil [16, 21]: 20
- Plant response rating, Crabgrass, Brazil [16, 23]: 50
- Plant response rating, Crabgrass, Brazil [16, 24]: 10
- Plant response rating, Crabgrass, Brazil [16, 25]: 40
- Plant response rating, Crabgrass, Brazil [16, 27]: 70
- Plant response rating, Crabgrass, Brazil [16, 26]: 90

Reference: US10597388B2, “Pyridazinone herbicides” (FMC CORPORATION, priority 2014, dated 2020)
